Laboratory results from patent US11401516B2, “Channel modulators” (AUCKLAND UNISERVICES LIMITED, priority 2014, dated 2022).

How the values were obtained:
retinal ganglion cells = experiment: In vivo retinal ischaemia-reperfusion model, Tonabersat; parameters: species or system Wistar rats; details: 7 days; for Retinal ganglion cell density: ischaemic eyes, mean±standard error
Procedure: Animals were anesthetized with an intraperitoneal injection of ketamine (60 mg/kg) and medetomidine hydrochloride (0.4 mg/kg) and the cornea anaesthetized with oxybuprocaine hydrochloride (0.4%). The technique of retinal ischaemia-reperfusion has previously been described (D. Sun, et al., The Journal of comparative neurology 505, 114 (Nov. 1, 2007)). Briefly, the left anterior chamber was cannulated with a 30-gauge infusion needle connected by silicone tubing to a reservoir of sterile 0.9% saline. Cannulation was performed using a stereotaxic manipulator arm to avoid injury to the corneal endothelium, iris, or lens. The intraocular pressure of the cannulated eye was raised to 120 mmHg for 60 minutes by elevating the saline reservoir. Retinal ischaemia-reperfusion was confirmed by pallor of the posterior segment. After 60 minutes, the cannula was removed and reperfusion of the retinal vessels was confirmed by ophthalmoscopy. Three experimental arms were applied at the end of 60 minutes of ischaemia. These included: no treatment (n=6), 10 mg/kg Tonabersat (n=6), or 1 mg/kg Tonabersat (n=4). Systemic delivery of 0.25 mL of a 10 mg/ml or 1 mg/ml Tonabersat solution diluted in 40% PEG, 60% cyclodextrin solution was achieved through intraperitoneal delivery at the start of reperfusion. A final blood Tonabersat concentration of 0.319 mM or 0.0319 mM was intended, assuming a blood volume of 20 mL and total systemic uptake of peptide. Animals were euthanized with CO2 at 7 days after reperfusion. One uninjured animal was euthanized to obtain uninjured retinas as normal controls.
After euthanasia eyes were enucleated, and the cornea, lens, and vitreous humour removed. The dorsal aspect of the retina was notched to retain orientation. The retina and sclera were fixed in 4% PFA in PBS for 60 minutes at room temperature (RT). The retina was then carefully removed from the sclera and permeabilized via incubation in 0.5% Triton-X100 in PBS solution for 15 minutes at […] Retinas were mounted onto SuperFrost Plus slides using citifluor mounting medium, and imaged.
Two fields in each quadrant of each retina were imaged giving a total of eight images per retina. This method insured similar locations were assessed between different eyes and avoided any possible area bias present in the retina. Retinal ganglion cell (RGC) labelling was imaged at 10× magnification. […] Spots of one or two pixels that resulted from noise and artefacts that were clearly not RGC of origin were excluded during particle counts. RGC density was calculated as the number of RGCs per cm2.

[1] = system: Cx43 mRNA in ARPE-19 cells; experiment: Real-time reverse transcription PCR of Cx43 mRNA; assay type: cell-based, human; details: 50 μM, 1 h, versus untreated and vehicle controls
Procedure: In the below Examples 3, 6 and 7 using human retinal epithelial (ARPE-19) cells, the cells were grown in DMEM/F: 12 (Invitrogen), supplemented with 10% fetal calf serum (FCS), 100 units/mL of penicillin, 100 μg/mL of streptomycin, and 0.25 μg/mL of Fungizone® Antimycotic (Invitrogen).
Real time reverse transcription PCR was used to determine the relative level of Cx43 mRNA. A confluent monolayer of ARPE-19 cells was treated with Tonabersat for 1 hour. Cells were harvested with TRIzol® (Life Technologies), and total RNA was isolated using […] according to manufacturer's instructions. All RNA samples were quantified using a nanodrop 1000 micro volume spectrophotometer (Thermo Scientific). cDNA from samples were synthesised using SuperScript® III First-Strand Synthesis SuperMix (Invitrogen) according to manufacturer's instructions. Primer sequences for hCx43, GenBank Accession No. M65188.1, were obtained from the Harvard Primer bank. […] The appropriate reference gene to be used for relative fold-difference in Cx43 mRNA was determined by screening commonly used house-keeping genes, ß-actin [ACTB], Hypoxanthine phosphoribosyltransferase 1 [HPRT1], peptidylprolyl isomerase A [PPIA], and glyceraldehyde-3-phosphate dehydrogenase [GAPDH]. […] Relative changes in Cx43 mRNA expression were calculated as fold-differences against ß-actin using the 2-ΔΔCt method. […]

## CC(=O)c1ccc2c(c1)[C@H](NC(=O)c1ccc(F)c(Cl)c1)[C@H](O)C(C)(C)O2 [Tonabersat, N-[(3S,4S)-6-acetyl-3-hydroxy-2,2-dimethyl-3,4-dihydrochromen-4-yl]-3-chloro-4-fluorobenzamide]
Retinal ganglion cells; 1 mg/kg intraperitoneal at start of reperfusion
  RGC loss compared to normal controls: 18%
Retinal ganglion cells; 1 mg/kg intraperitoneal
  Retinal ganglion cell density: 199927±26058 cells/cm2
Retinal ganglion cells; 10 mg/kg intraperitoneal at start of reperfusion
  RGC loss compared to normal controls: 35%
Retinal ganglion cells; 10 mg/kg intraperitoneal
  Retinal ganglion cell density: 158739±26370 cells/cm2
[1]
  Cx43 mRNA level relative to ß-actin: no significant difference in Cx43 mRNA
